4 compounds from doi:10.1101/2023.11.24.568596v1 (biorxiv, 2023) can be followed below.

What all share (settings): binder
Experiment [1] concerns the target T1, BRPF1 (Homo sapiens, UniProt P55201).
T1 sequence (P55201 1-1214): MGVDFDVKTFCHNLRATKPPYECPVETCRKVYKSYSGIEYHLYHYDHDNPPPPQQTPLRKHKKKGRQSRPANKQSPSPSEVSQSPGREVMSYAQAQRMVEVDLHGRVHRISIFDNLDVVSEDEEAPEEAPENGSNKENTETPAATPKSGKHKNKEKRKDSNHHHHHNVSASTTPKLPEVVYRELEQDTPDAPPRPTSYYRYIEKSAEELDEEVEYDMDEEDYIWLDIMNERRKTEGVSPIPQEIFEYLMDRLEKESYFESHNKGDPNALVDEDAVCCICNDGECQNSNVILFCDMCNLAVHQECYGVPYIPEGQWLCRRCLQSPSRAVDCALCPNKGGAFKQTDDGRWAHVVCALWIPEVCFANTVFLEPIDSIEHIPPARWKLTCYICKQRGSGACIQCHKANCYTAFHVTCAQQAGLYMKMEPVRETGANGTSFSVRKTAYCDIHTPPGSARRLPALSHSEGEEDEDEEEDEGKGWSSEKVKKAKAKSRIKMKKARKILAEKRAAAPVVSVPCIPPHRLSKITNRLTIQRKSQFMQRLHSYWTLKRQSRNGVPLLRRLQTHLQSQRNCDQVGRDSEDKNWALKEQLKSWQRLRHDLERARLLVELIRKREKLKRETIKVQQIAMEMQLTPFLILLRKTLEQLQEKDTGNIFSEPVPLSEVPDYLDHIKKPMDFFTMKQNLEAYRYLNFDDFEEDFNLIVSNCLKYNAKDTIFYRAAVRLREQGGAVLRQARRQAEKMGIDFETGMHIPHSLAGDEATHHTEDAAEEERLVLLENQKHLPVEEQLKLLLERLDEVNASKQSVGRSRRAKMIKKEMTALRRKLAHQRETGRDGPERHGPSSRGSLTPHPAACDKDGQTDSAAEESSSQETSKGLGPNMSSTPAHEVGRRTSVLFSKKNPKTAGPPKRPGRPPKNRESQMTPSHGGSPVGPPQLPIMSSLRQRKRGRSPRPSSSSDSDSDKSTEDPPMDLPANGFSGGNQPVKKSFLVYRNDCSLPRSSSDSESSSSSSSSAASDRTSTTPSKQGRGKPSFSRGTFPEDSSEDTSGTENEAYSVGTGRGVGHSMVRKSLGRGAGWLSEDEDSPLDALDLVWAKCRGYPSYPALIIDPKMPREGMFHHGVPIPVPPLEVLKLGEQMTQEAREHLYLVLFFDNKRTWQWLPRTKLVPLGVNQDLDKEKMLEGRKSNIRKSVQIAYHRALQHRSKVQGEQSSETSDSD

The target of experiment [2] is CLK3 (Homo sapiens, UniProt P49761).
For experiment [3], the target named is T2, CaMK4 (Homo sapiens, UniProt Q16566).
T2 sequence (Q16566 1-473): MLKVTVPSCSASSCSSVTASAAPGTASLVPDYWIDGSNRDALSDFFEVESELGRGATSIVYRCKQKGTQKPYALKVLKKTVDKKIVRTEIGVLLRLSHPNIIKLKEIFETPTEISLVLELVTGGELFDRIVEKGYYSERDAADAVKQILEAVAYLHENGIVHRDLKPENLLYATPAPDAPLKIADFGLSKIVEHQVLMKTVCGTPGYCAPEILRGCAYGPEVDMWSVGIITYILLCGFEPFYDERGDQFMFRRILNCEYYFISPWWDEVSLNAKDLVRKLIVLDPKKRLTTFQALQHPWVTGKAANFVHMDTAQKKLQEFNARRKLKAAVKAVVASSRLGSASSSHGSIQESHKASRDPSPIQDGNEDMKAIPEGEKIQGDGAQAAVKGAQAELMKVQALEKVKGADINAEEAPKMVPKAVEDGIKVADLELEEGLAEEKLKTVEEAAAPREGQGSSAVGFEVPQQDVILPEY

The target in experiment [4] is DYRK1A (Homo sapiens, UniProt Q13627).
Experiment [5] addresses NEK7 (Homo sapiens, UniProt Q8TDX7).
Experiment [6] has as its target T3, ULK3 (Homo sapiens, UniProt Q6PHR2).
T3 sequence (Q6PHR2 1-472): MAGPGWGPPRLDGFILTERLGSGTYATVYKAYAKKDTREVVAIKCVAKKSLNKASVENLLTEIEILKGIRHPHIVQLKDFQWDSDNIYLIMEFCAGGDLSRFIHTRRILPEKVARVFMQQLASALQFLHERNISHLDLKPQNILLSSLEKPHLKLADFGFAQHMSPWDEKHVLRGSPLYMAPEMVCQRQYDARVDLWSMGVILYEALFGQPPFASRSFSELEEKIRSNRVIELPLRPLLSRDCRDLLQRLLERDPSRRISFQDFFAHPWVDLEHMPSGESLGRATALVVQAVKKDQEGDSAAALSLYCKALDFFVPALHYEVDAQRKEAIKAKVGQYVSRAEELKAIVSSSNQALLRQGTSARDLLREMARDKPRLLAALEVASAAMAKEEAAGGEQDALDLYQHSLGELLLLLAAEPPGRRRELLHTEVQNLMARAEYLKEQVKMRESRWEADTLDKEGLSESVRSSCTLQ

Each structure is given as a SMILES string.

NEK7, sequence (Q8TDX7 whole entry): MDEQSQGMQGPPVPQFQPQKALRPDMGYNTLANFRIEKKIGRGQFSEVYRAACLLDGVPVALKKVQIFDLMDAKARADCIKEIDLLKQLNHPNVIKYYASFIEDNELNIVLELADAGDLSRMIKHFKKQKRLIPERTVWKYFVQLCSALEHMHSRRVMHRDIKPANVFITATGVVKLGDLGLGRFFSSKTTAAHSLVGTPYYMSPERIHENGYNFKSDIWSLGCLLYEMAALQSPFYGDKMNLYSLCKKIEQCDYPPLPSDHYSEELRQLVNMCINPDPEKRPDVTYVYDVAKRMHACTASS
CLK3, sequence (P49761 whole entry): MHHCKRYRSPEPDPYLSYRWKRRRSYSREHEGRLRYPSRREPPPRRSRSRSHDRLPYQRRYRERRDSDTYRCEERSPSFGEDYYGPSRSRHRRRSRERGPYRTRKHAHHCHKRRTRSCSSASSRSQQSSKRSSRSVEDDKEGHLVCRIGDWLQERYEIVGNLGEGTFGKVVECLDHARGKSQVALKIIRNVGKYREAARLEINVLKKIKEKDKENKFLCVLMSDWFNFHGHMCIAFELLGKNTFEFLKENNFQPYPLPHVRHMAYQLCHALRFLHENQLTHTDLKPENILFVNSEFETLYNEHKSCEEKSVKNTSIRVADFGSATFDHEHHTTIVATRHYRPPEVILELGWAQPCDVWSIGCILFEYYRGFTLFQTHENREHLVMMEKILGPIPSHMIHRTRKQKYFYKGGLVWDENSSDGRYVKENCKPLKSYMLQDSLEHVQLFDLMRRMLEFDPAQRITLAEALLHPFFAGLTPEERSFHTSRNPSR

`COc1ccc(O)c(Nc2ncc3cc(-c4ccc(-c5cccc(C)n5)cc4Cl)c(=O)n(CCCCN)c3n2)c1` [compound 34, 8-(4-Aminobutyl)-6-(2-chloro-4-(6-methylpyridin-2-yl)phenyl)-2-((2-hydroxy-5-methoxy-phenyl)amino)pyrido[2,3-d]pyrimidin-7(8H)-one]: the “dTm 34” value in experiment [1] was -1.6 °C; in experiment [2], -1.0 °C; in experiment [3], 3.9 °C; in experiment [4], -1.0 °C; in experiment [5], -1.0 °C; in experiment [6] it was 8.3 °C.

In the case of `Cc1cccc(-c2ccc(-c3cc4cnc(Nc5ccc(F)c(CO)c5)nc4n(CCCCN)c3=O)c(Cl)c2)n1` [compound 33, 8-(4-Aminobutyl)-6-(2-chloro-4-(6-methylpyridin-2-yl)phenyl)-2-((4-fluoro-3-(hydroxymethyl)phenyl)amino)pyrido[2,3-d]pyrimidin-7(8H)-one], the “dTm 33” value was -2.7 °C in experiment [1]; -0.5 °C in experiment [2]; 5.2 °C in experiment [3]; -0.6 °C in experiment [4]; -1.4 °C in experiment [5]; 13.9 °C in experiment [6].

Turning to `COc1cc(N2CCOCC2)ccc1Nc1ncc2cc(-c3ccc(-c4cccc(C)n4)cc3Cl)c(=O)n(CCCCN)c2n1` [compound 35, 8-(4-Aminobutyl)-6-(2-chloro-4-(6-methylpyridin-2-yl)phenyl)-2-((2-methoxy-4-morpholino-phenyl)amino)pyrido[2,3-d]pyrimidin-7(8H)-one], the “dTm 35” value was -2.8 °C in experiment [1]; -1.3 °C in experiment [2]; 5.7 °C in experiment [3]; -2.3 °C in experiment [4]; -2.4 °C in experiment [5]; 12.7 °C in experiment [6].

As for `COc1cc(N2CCN(C)CC2)ccc1Nc1ncc2cc(-c3ccc(-c4cccc(C)n4)cc3Cl)c(=O)n(CCCCN)c2n1` [compound 36, 8-(4-Aminobutyl)-6-(2-chloro-4-(6-methylpyridin-2-yl)phenyl)-2-((2-methoxy-4-(4-methylpiperazin-1-yl)phenyl)amino)pyrido[2,3-d]pyrimidin-7(8H)-one], the “dTm 36” value was -1.2 °C in experiment [1]; -0.7 °C in experiment [2]; 3.2 °C in experiment [3]; -0.8 °C in experiment [4]; -1.4 °C in experiment [5]; 8.9 °C in experiment [6].
